Earlier results, collected in US20060251786A1 (priority 2005, published 2006).

Conditions: scale of 1-6; Gosselin et al., 5th ed, 1984

O=c1ccc2ccccc2o1 [coumarin, 1,2-benzopyrone]
toxicity level: 4

CN1CCCC1c1cccnc1 (centres unmarked) [nicotine]
toxicity level: 6
